For orientation: IC50 means the point on the concentration scale where inhibition reaches its midpoint.

The target in the assay is T1, Human eIF4E (Homo sapiens, UniProt P06730).
T1 construct: Human eIF4E (aa 28-217) with a C-terminal His-tag; made in house
T1 sequence (P06730 28-217): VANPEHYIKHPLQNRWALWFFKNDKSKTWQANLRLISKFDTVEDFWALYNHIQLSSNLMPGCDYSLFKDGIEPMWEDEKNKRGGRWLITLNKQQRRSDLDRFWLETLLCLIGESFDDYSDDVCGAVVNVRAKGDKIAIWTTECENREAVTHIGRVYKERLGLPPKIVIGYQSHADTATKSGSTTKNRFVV
As to the kind of experiment: Human eIF4E/4G2 binding assay (TR-FRET). To be noted: eIF4E (aa 28-217) with biotin labeled 4G2 peptide. In short, it runs like this: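 His-tagged human eIF4E (aa 28-217), refolded from E. coli inclusion bodies, at 82.5 nM working stock; compounds in 10-point 2-fold DMSO series, preincubated 15 min at RT in 50 mM NaPi pH 6.5, 50 mM KCl, 1 mM DTT. Biotin-4G2 peptide added, 15 min, then Eu-streptavidin/APC-anti-His, 20 min; normalized 665/615 nm TR-FRET signal; IC50 by curve fit.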
Consider `O=C(O)C1CN(c2nc(-c3ccc(Oc4ccccc4)cc3)c(-c3ccccc3)s2)CCO1` (stereo not shown) [Compound I-213], for which the IC50 was less than 5 µM.

Molecule `O=C(O)C1CN(c2nc(-c3ccc(Oc4ccccc4)cc3)c(-c3cncnc3)s2)CCO1` (stereo not shown) [Compound I-214] returned an IC50 greater than 25 µM.

In the case of `O=C(O)C1CN(c2nc(-c3ccc(Oc4ccccc4)cc3)c(-c3cccnc3)s2)CCO1` (stereo not shown) [Compound I-215], the IC50 is greater than 25 µM.

`O=C(O)C1CN(c2nc(-c3ccc(Oc4ccccc4)cc3)c(-c3cccc4[nH]ccc34)s2)CCO1` (stereo not shown) [Compound I-216] had an IC50 greater than 25 µM.

Turning to `CC1(C(=O)O)CCCN(c2nc(-c3ccc(Oc4ccccc4)cc3)c(-c3ccccc3)s2)C1` (stereo not shown) [Compound I-217], the IC50 was less than 5 µM.

`CC1(C(=O)O)CCCN(c2nc(-c3ccc(Oc4ccccc4)cc3)c(-c3cncnc3)s2)C1` (stereo not shown) [Compound I-218] displayed an IC50 greater than 25 µM.

In turn, `CC1(C(=O)O)CCCN(c2nc(-c3ccc(Oc4ccccc4)cc3)c(-c3cccnc3)s2)C1` (stereo not shown) [Compound I-219] displayed an IC50 of 5 to 25 µM.

`CC1(C(=O)O)CCCN(c2nc(-c3ccc(Oc4ccccc4)cc3)c(-c3cccc4[nH]ccc34)s2)C1` (stereo not shown) [Compound I-220] showed an IC50 of less than 5 µM.

Consider `CC(C)[C@@H](CC(=O)O)Nc1nc(-c2ccc(-c3ccc(F)cc3)cc2)c(Br)s1` [Compound I-221], for which the IC50 was less than 5 µM.

For the molecule `CC(C)[C@H](CC(=O)O)Nc1nc(-c2ccc(-c3ccc(F)cc3)cc2)c(Br)s1` [Compound I-222], the IC50 is less than 5 µM.

Molecule `O=C(O)[C@@H]1CCCN(c2nc(-c3ccc(-c4ccc(F)cc4)cc3)c(-c3ccccc3)s2)C1` [Compound I-223] registered an IC50 of less than 5 µM.

On to `O=C(O)[C@H]1CCCN(c2nc(-c3ccc(-c4ccc(F)cc4)cc3)c(-c3ccccc3)s2)C1` [Compound I-224], for which the half-maximal inhibitory concentration (IC50) is less than 5 µM.

`O=C(O)C[C@H]1CCCN1c1nc(-c2ccc(-c3ccc(F)cc3)cc2)c(-c2ccccc2)s1` [Compound I-225] displayed an IC50 of less than 5 µM.

As for `O=C(O)C[C@@H]1CCCN1c1nc(-c2ccc(-c3ccc(F)cc3)cc2)c(-c2ccccc2)s1` [Compound I-226], the IC50 is less than 5 µM.

`O=C(O)[C@@H]1CCCN(c2nc(-c3ccc(Oc4ccccc4)cc3)c(-c3ccccc3)s2)C1` [Compound I-227]: the IC50 is less than 5 µM.

For the molecule `O=C(O)[C@H]1CCCN(c2nc(-c3ccc(Oc4ccccc4)cc3)c(-c3ccccc3)s2)C1` [Compound I-228], the half-maximal inhibitory concentration (IC50) is less than 5 µM.

In turn, `CC(CNc1nc(-c2ccc(-c3ccc(F)cc3)cc2)c(C(F)(F)F)s1)C(=O)O` (stereo not shown) [Compound I-229] yielded an IC50 of less than 5 µM.

As to `Cc1sc(NCC(C)C(=O)O)nc1-c1ccc(-c2ccc(F)cc2)cc1` (stereo not shown) [Compound I-230], the IC50 was 5 to 25 µM.

As to `O=C(O)C1COCCN1c1nc(-c2ccc(-c3ccc(F)cc3)cc2)c(-c2ccccc2)s1` (stereo not shown) [Compound I-231], the IC50 was less than 5 µM.

For the molecule `O=C(O)C1CCCN(c2nc(-c3ccc(-c4ccc(F)cc4)cc3)c(C3CC3)s2)C1` (stereo not shown) [Compound I-232], the IC50 was less than 5 µM.

As for `O=C(O)C1CCCN(c2nc(-c3ccc(-c4ccc(F)cc4)cc3)c(C(F)(F)F)s2)C1` (stereo not shown) [Compound I-233], the IC50 is less than 5 µM.

For `O=C(O)CCc1nc(-c2ccc(-c3ccc(F)cc3)cc2)c(-c2ccccc2)s1` [Compound I-234, 3-(4-(4′-fluorobiphenyl-4-yl)-5-phenylthiazol-2-yl)propanoic acid], the half-maximal inhibitory concentration (IC50) is less than 5 µM.

The molecule `O=C(O)CCc1nc(-c2ccc(-c3ccc(F)cc3)cc2)c(C(F)(F)F)s1` [Compound I-235, 3-(4-(4′-fluorobiphenyl-4-yl)-5-(trifluoromethyl)-thiazol-2-yl)-propanoic acid] displayed an IC50 of 5 to 25 µM.

`Cc1sc(N2CCOC(C(=O)O)C2)nc1-c1ccc(-c2ccc(F)cc2)cc1` (stereo not shown) [Compound I-236, 4-(4-(4′-fluorobiphenyl-4-yl)-5-methylthiazol-2-yl) morpholine-2-carboxylic acid] had an IC50 of 5 to 25 µM.

`Cc1nc(N2CCOC(C(=O)O)C2)sc1-c1ccc(-c2ccc(F)cc2)cc1` (stereo not shown) [Compound I-237, 4-(5-(4′-fluorobiphenyl-4-yl)-4-methylthiazol-2-yl) morpholine-2-carboxylic acid] gave an IC50 of 5 to 25 µM.

For the molecule `Cc1nc(N2CCCC(C(=O)O)C2)sc1-c1ccc(-c2ccc(F)cc2)cc1` (stereo not shown) [Compound I-238], the IC50 is 5 to 25 µM.

As for `O=C(O)C1CN(c2nc(-c3ccc(-c4ccc(F)cc4)cc3)c(C(F)(F)F)s2)CCO1` (stereo not shown) [Compound I-239], the IC50 lay in the range of 5 to 25 µM.

Regarding `O=C(O)C1CN(c2nc(-c3ccccc3)c(-c3ccc(-c4ccc(F)cc4)cc3)s2)CCO1` (stereo not shown) [Compound I-240, 4-(5-(4′-fluorobiphenyl-4-yl)-4-phenylthiazol-2-yl) morpholine-2-carboxylic acid], the IC50 was less than 5 µM.

The record behind these values is patent publication US12030875B2, “EIF4E inhibitors and uses thereof” (PIC Therapeutics, Inc., priority 2018, dated 2024).
